What was measured:
[1] = system: fetal dopaminergic neurons (TH+) in culture; experiment: dopaminergic neuron spontaneous degeneration model, second protocol (Mourlevat et al.), TH+ neuron count after 10 days; assay type: cell-based; conditions: Rattus norvegicus, 240 h, effect at 100 μM, 10 days of culture, read-out: TH+ neurons in % of control ± Std. Err.
Protocol: This second protocol is described in the article by Mourlevat, P. P. Michel et al. Molecular Pharmacology 2003, 64:578-586 (“Prevention of Dopaminergic Neuronal Death by Cyclic AMP in Mixed Neuronal/Glial Mesencephalic Cultures Requires the Repression of Presumptive Astrocytes”). […] Compounds according to the invention were evaluated at 50 μM except compound 4bc which was assessed at 100 μM.

[2] = passage of the blood-brain barrier, per os study: brain extract by HPLC-MS/MS; assay type: in vivo, Rj Orl: SWISS mice; conditions: per os 150 mg/kg twice daily 4 days + last treatment day 5; euthanized 4 h to 6 h 40 after last treatment
Protocol: Male Rj Orl: SWISS, mice, approximately 5 weeks old and weighing between 20 and 24 g at arrival (R Janvier Breeding Center, France) were kept in the animal room at constant temperature (22±1° C.) and controlled humidity (55±20%), with a 12-hour light/dark cycle (8:00 a.m.-8:00 p.m.). During the acclimation and study period, the mice had free access to food and water. All the experiments were conducted in compliance with the conditions of decree 2001-464 of May 29, 2001 relative to animal experimentation.
The solution of compound 4bc at the concentration of 15.0 g/L to be administered was prepared in the following carrier: 0.5% Tween 80+99.5% carboxymethyl cellulose at 1%, in 0.9% NaCl in water.
Three groups were created: • mice who received the carrier orally at 10 mL/kg (Group V, n=4), • mice treated with compound 4bc orally at 150 mg/kg and at 10 mL/kg (Group T, n=6), • control mice who received no treatment (n=2). All the mice were treated or received the carrier twice daily for 4 days. On the 5th day, a last treatment was administered and the animals were euthanized between […]. after this last treatment according to the following plan: […]
Detection and quantification, based on peak area, were done by HPLC-MS/MS in MRM mode.

[3] = IP study in rats: brain extract and plasma concentration; assay type: in vivo
Protocol: The kinetics in mouse brain and plasma of compound 4bc after IP administration are also shown in FIG. 8. • Another study was done in rats treated by IP. These rats received a treatment of 20 or 45 mg/kg at 10 mL/kg of a solution of compound 4bc over 2 days comprising 2 IP injections the first day and 1 IP injection the second day.

[4] = influence of time before euthanasia, per os route: brain extract and plasma concentration; assay type: in vivo, C57BL\6J mice
Protocol: This study was done on C57BL\6J (instead of RjOrl:SWISS) mice treated with compound 4bc by IP or per os.
Mice treated per os received a treatment of 150 mg/kg to 10 mL/kg of a solution of compound 4bc over 5 days comprising twice daily administrations for 4 days and a once daily administration the last day.

[5] = toxicity: animal weight monitoring during per os treatment; assay type: in vivo
Protocol: Three groups were created: • mice who received the carrier orally at 10 mL/kg (Group V, n=4), • mice treated with compound 4bc orally at 150 mg/kg and at 10 mL/kg (Group T, n=6), • control mice who received no treatment (n=2). All the mice were treated or received the carrier twice daily for 4 days. On the 5th day, a last treatment was administered and the animals were euthanized between […]. after this last treatment according to the following plan:
The animals were weighed every day throughout the sub-chronic study in order to monitor their general condition. Animal weights were considered a good indicator of general health since a compound's toxicity is known to be characterized by loss of bodyweight over time.

[6] = IP 20 mg/kg at 10 mL/kg, approximately 3 h
[7] = per os 150 mg/kg, approximately 1 h 30 min
[8] = per os 150 mg/kg, approximately 2 h
[9] = per os 150 mg/kg, approximately 2 h 25 min

SMILES: Cc1nc2ccc(N)cc2nc1-c1ccccc1 [Compound 4bc]
- activity at 100 µM [1]: 139 ± 11%
- detection in brain samples [2]: undetectable
- Brain extract concentration [3, 6]: 0.1 µg/mL
- Plasma concentration [3, 6]: 0.4 µg/mL
- Brain extract concentration ([3]; IP 45 mg/kg at 10 mL/kg, approximately 1 h): 5.1 µg/mL
- concentration at 1 h ([4]; C57BL\6J, mouse, brain extract, oral, per os 150 mg/kg over 5 days, approximately 1 h after last treatment): 2200 ng/mL
- crossing of the blood-brain barrier in vivo ([4]; oral administration): able to cross the mouse or rat blood-brain barrier
- Brain extract concentration ([4]; per os 150 mg/kg over 5 days, approximately 1 h after last treatment): 2.2 µg/mL
- Plasma concentration ([4]; per os 150 mg/kg, approximately 1 h): 11.6 µg/mL
- Brain extract concentration [4, 7]: 0.2 µg/mL
- Plasma concentration [4, 7]: 0.7 µg/mL
- Brain extract concentration [4, 8]: 0.1 µg/mL
- Plasma concentration [4, 8]: 0.04 µg/mL
- Brain extract concentration [4, 9]: 0.05 µg/mL
- Plasma concentration [4, 9]: 0.4 µg/mL
- adverse reactions ([5]; oral, 300 mg/kg/day over a 5-day treatment): without adverse reactions
- toxicity from animal weight gain ([5]; per os, 300 mg/kg/day, 5 days): absence of significant toxicity

Source: patent publication US9434701B2, “Aminoquinoxaline derivatives for treatment of neurodegenerative diseases” (CENTRE NATIONAL DE LA RECHERCHE SCIENTIFIQUE (CNRS), priority 2011, dated 2016)
